Test results reported in patent EP1043979B1, “COMPOSITIONS FOR THE TRANSDERMAL AND DERMAL ADMINISTRATION OF BIOLOGICALLY ACTIVE AGENTS” (PULITZER ITALIANA S.r.l., priority 1997, dated 1999).

Assay: In vitro transdermal flux of nitroglycerin from TTS patches, Franz diffusion cells, HPLC of receiving medium
Format: in vitro ADME, human
From the text: The transdermal delivery devices employed in this example and in the following ones were produced according to the following procedure. A matrix layer containing the active substance, the adhesive and, when present, the permeation enhancer and the absorption assistant was obtained by uniformly spreading a solution of the components, with the proper concentration, viscosity and quantitative composition, on the silanised or fluorinated surface of a polyester protective layer. After evaporating the solvent at 70-80°C for 15-20 min. a final layer of a homogeneous thickness was obtained. weighing about 10 mg/cm^2 and having the desired composition. The composition had been preliminarily fixed taking into account the amount of solvent to be removed. During the above operation the adhesive employed underwent the required cross-linking reaction. […]
On the transdermal devices thus produced in vitro release tests were carried out, employing methods well known to this aim (Merrit e. Cooper, J. Controlled Release, 1984, 1, 161), that have been further developed more recently (Reifenrath et al., J. Pharm. Sci., 80, 1991, 526). […] The tested patches were applied to the exposed side of the skin, and the transdermal flux was measured by analysing (by HPLC) the receiving medium. […]

Compound | activity as enhancer (N-(2-hydroxyethyl)acetamide alone, 3-7% in nitroglycerin TTS (Table 2)) | transdermal permeation
CC(=O)NCCO [N-(2-hydroxyethyl)acetamide] | does not possess any significant activity as enhancer | 
sorbitan monooleate |  | relative reduction of the transdermal permeation
